Entries after “also recorded” stand apart in the source; their conditions may differ. Read-outs that look alike come from different tables or passages of the source. Values belong to the compound of their own block, whether it stands above or below them.
Assays:
[1] = system: mouse hippocampal HT22 cells; assay: HT22 cell culture assay, glutamate-induced cell death (LDH release); type: cell-based; conditions: for protection against oxidative glutamate toxicity in HT22 cells: 5 mM glutamate, increasing amounts or concentration not stated
Source text: Glutamate-induced oxidative stress^67-69 leads to time-dependent cell death mediated by 12/15-LOX in both immature primary neurons and mouse hippocampal HT22 cells.^38,46,70 Primary neurons require a lengthy isolation procedure and also show relatively modest increases in cell death in this assay, indicating they are not suited for a high-throughput testing approach. In contrast, HT22 cells grow quickly and consistently feature low cell death under control conditions, but a majority of cells die after glutamate treatment (50-100%). This assay can be adapted to 96-well plates, allowing for moderate to high throughput against the screened compounds. The characteristic Z′ score used to evaluate the technical quality and suitability as screening tool averaged 0.77 over ten experiments (SD=0.13; range, 0.49-0.94), where values above 0.5 indicate an excellent assay.^71
Treatment consisted of exchanging the medium to 100 μl fresh culturing medium and adding 5 mM glutamate (stock solution 0.5 M in PBS) in the presence or absence of DMSO (maximum 0.1% final concentration) as control or the indicated concentrations of 1. […] Three independent experiments were evaluated. […] The eicosanoids containing fractions were transferred to scintillation vials followed by addition of perdeuterated 13-HODE (13-d31-HODE), as an internal control for extraction and 1.5% glacial acetic acid for protein precipitation. […] The dry samples were then re-constituted in methanol and an internal control 12-deuterated (d8)-HETE (12-d8-HETE), was added to each sample for detector response variation and it was assumed that the change in detector response for 12-HETE and 12-d8-HETE would be similar. […] The Collision Induced Dissociation (CID) was used for MS-MS with collision energy of 35 eV.

[2] = biological target: human reticulocyte 15-lipoxygenase-1 (12/15-LOX) (Homo sapiens (Human), UniProt P16050); assay: Lipoxygenase UV-Vis cuvette-based assay, 12/15-LOX; type: biochemical; conditions: for 12/15-LOX inhibition in words: SAR discussion, human 12/15-LOX
Chain of human reticulocyte 15-lipoxygenase-1 (12/15-LOX) (P16050 whole entry): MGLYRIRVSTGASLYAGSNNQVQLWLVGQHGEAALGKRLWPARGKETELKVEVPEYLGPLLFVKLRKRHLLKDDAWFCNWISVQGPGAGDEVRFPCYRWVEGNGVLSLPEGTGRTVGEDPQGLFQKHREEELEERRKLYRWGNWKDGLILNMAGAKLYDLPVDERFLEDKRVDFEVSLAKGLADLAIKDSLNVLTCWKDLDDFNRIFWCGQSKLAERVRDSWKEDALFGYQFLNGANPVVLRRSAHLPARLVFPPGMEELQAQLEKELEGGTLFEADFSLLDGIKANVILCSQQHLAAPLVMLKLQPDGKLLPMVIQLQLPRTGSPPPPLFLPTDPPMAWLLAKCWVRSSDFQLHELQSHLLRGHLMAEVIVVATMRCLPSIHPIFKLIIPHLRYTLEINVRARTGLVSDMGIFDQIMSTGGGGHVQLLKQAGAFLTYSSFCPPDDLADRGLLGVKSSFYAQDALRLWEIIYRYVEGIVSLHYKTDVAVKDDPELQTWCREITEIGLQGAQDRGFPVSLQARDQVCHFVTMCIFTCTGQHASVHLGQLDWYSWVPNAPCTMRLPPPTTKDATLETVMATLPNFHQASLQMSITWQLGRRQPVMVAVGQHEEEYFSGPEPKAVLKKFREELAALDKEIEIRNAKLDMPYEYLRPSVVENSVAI
Protocol: (§1) Human 5-lipoxygenase (5-LOX) was expressed as a non-tagged protein and used as a crude ammonium sulfate protein fraction, as published previously.^77
(§2) The inhibitor compounds were screened initially using one concentration point on a Perkin-Elmer Lambda 40 UV-Vis spectrometer. […] The reactions were initiated by adding either of ˜40 nM 12-LOX, 40 nM 12/15-LOX, 0.5 μM 15-LOX-2 or ˜200 nM 5-LOX (ammonium sulfate suspension) to a cuvette with a 2 mL reaction buffer constantly stirred using a magnetic stir bar at room temperature (22° C.). […] Inhibitors were stored at −20° C. in DMSO.

[3] = biological target: Human 5-lipoxygenase (5-LOX) (Homo sapiens (Human), UniProt P09917); assay: Lipoxygenase UV-Vis assay, 5-LOX; type: biochemical; conditions: selectivity profiling
Chain of Human 5-lipoxygenase (5-LOX) (P09917 whole entry): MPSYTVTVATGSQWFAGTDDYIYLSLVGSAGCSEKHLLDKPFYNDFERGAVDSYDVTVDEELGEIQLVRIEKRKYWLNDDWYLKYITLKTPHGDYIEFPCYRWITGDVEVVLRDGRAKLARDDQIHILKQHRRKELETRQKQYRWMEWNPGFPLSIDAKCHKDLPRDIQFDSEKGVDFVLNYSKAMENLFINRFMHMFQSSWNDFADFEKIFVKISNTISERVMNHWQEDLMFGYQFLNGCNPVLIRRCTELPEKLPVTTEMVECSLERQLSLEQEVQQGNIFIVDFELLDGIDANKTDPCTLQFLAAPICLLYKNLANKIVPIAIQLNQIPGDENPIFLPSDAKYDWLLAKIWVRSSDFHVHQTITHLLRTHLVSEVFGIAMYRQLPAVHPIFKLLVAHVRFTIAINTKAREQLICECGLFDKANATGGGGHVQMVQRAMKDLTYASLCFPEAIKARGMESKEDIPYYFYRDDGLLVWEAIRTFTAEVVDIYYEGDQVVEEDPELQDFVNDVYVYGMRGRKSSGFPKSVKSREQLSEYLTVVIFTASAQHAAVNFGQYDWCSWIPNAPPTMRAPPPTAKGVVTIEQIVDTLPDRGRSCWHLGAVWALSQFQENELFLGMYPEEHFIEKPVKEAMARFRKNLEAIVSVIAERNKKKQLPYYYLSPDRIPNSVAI
Protocol: as §1, §2

[4] = biological target: human epithelial 15-lipoxygenase-2 (15-LOX-2) (Homo sapiens (Human), UniProt O15296); assay: Lipoxygenase UV-Vis assay, 15-LOX-2; type: biochemical; conditions: selectivity profiling
Chain of human epithelial 15-lipoxygenase-2 (15-LOX-2) (O15296 whole entry): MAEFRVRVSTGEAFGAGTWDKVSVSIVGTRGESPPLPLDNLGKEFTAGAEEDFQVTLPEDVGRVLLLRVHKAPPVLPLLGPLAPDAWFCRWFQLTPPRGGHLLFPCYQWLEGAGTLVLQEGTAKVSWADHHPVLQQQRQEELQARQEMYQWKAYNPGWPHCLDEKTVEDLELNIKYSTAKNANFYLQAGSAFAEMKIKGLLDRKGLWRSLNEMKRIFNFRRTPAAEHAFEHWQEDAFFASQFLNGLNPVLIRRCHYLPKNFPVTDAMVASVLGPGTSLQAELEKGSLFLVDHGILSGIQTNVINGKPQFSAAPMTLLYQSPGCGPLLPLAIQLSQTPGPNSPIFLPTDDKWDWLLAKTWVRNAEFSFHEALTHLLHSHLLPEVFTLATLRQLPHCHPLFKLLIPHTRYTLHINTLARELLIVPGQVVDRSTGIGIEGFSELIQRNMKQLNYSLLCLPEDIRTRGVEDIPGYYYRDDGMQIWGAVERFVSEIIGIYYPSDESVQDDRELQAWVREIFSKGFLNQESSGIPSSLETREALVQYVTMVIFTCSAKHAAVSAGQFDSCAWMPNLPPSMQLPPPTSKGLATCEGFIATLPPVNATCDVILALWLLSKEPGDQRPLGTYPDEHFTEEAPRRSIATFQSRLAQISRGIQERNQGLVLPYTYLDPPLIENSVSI
Protocol: as §1, §2

[5] = biological target: human platelet 12-lipoxygenase (12-LOX) (Homo sapiens (Human), UniProt P18054); assay: Lipoxygenase UV-Vis assay, 12-LOX; type: biochemical; conditions: selectivity profiling
Chain of human platelet 12-lipoxygenase (12-LOX) (P18054 whole entry): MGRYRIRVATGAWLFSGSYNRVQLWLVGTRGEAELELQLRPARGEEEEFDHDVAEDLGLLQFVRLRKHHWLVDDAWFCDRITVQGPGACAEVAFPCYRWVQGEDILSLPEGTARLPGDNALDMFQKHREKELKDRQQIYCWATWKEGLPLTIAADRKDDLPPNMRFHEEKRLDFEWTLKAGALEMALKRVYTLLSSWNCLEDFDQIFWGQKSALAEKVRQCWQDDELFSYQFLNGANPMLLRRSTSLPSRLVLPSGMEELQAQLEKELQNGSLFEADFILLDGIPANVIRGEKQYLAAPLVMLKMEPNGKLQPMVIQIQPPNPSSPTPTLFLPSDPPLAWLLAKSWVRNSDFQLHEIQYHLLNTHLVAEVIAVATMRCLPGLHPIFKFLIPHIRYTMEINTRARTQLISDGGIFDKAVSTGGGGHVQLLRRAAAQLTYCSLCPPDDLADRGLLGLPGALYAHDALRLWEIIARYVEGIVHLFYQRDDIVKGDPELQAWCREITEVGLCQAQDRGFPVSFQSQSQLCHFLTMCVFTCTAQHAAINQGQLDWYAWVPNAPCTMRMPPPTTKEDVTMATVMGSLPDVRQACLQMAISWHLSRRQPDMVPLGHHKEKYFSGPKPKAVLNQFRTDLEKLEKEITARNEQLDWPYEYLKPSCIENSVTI
Protocol: as §1, §2

[6] = system: mouse distal MCAO model of permanent focal ischemia; design: species or system C57B16J mice; conditions: in vivo
[7] = system: warfarin-pretreated mice subjected to transient focal ischemia; assay: Warfarin-associated hemorrhage following experimental stroke (transient focal ischemia); type: in vivo, mouse
Protocol: A) In warfarin-pretreated mice subjected to transient focal ischemia with 3 h occlusion, 50 mg/kg ML351 was administered by i.p. injection 3 h after onset of ischemia (FIG. 9A). This mimics the situation of a patient on warfarin who experiences a severe stroke with hemorrhagic transformation.
B) To investigate if administering tPA to patients with an ischemic stroke who are on warfarin can be made safe, warfarin-pretreated mice were subjected to 2 h of transient focal ischemia, then treated with tPA 4 h after onset of ischemia, and administered 50 mg/kg ML351 by i.p. injection concurrently with tPA.

[8] = system: filament model of transient focal ischemia; assay: Filament model of transient focal ischemia; type: in vivo, mouse; conditions: 90 minutes ischemia, sacrifice at 24 hours
Caco-2 permeability = conditions: human
[9] = Aqueous kinetic solubility; conditions: PBS buffer (pH 7.4)
[10] = Stability in aqueous solutions; conditions: pH 2, pH 7.4, pH 9
[11] = In vivo PK (mouse) at 30 mpk IP
[12] = Microsomal stability, rat liver microsomes; conditions: absence of NADPH; 1 hr period; species not distinguished
[13] = UV-Vis cuvette-based assay in triplicate, 10 μM AA, read-out: IC50 (μM) [±SD (μM)]
[14] = male, CD1, mouse, brain, ip, 30 mg/kg
[15] = male, CD1, mouse, plasma, ip, 30 mg/kg

Structure (SMILES): CNc1oc(-c2ccc(Cl)c(Cl)c2)nc1C#N [Compound 8, 2-(3,4-Dichlorophenyl)-5-(methylamino)oxazole-4-carbonitrile]
protection against glutamate-induced cell death in HT22 cells ([1]; concentrations of 2 to 10): dose-dependent cell protective effect

Structure (SMILES): CNc1oc(-c2ccc3ccccc3c2)nc1C#N [Compound 2, 5-(Methylamino)-2-(naphthalen-2-yl)oxazole-4-carbonitrile]
IC50 [2]: > 30 µM

Structure (SMILES): CNc1oc(-c2ccc3c(c2)OCCO3)nc1C#N [Compound 9, 2-(2,3-Dihydrobenzo[b][1,4]dioxin-6-yl)-5-(methylamino)oxazole-4-carbonitrile]
IC50 [2, 13]: > 40 µM

Structure (SMILES): CNc1oc(-c2ccc(-c3ccccc3)cc2)nc1C#N [Compound 11, 2-([1,1′-Biphenyl]-4-yl)-5-(methylamino)oxazole-4-carbonitrile]
12/15-LOX inhibition in words [2]: did not inhibit human 12/15-LOX
protection against oxidative glutamate toxicity in HT22 cells [1]: protected HT22 cells against oxidative stress

Structure (SMILES): CNc1sc(-c2cccc3ccccc23)nc1C#N [Compound 32, 5-(methylamino)-2-(naphthalen-1-yl)thiazole-4-carbonitrile]
IC50 [4]: > 100 µM
IC50 [5]: > 40 µM

Structure (SMILES): CNc1oc(-c2cccc3ccccc23)nc1C#N [Compound 1, 5-(Methylamino)-2-(naphthalen-1-yl)oxazole-4-carbonitrile]
IC50 [5]: > 100 µM
cellular protection in HT22 cells ([1]; 5 μM concentration): cellular protection
protection against oxidative glutamate toxicity in HT22 cells [1]: protective against oxidative glutamate toxicity; also recorded: dose-dependent protection
infarct size, permanent focal ischemia [6]: significantly reduced infarct size
hemorrhage in the ischemic hemisphere of warfarin-treated mice treated with tPA ([7]; 2 h ischemia, tPA 4 h after onset, 50 mg/kg i.p. concurrently with tPA): significantly reduced
hemorrhage in the ischemic hemisphere of warfarin-treated mice ([7]; 3 h occlusion, 50 mg/kg i.p. 3 h after onset of ischemia): significantly reduced
infarct size, transient focal ischemia ([8]; 10 mg/kg): did not change the infarct
infarct size, transient focal ischemia ([8]; 25 mg/kg): significantly protective
infarct size, transient focal ischemia ([8]; 50 mg/kg): significantly protective
Permeability (PAMPA) (PAMPA permeability): 723 10^−6 cm/s
Papp (Caco-2 permeability): 1.5 ×10⁻⁶ cm/s
Mouse Plasma Stability remaining at 2 hours (Mouse plasma stability): 100%
Kinetic Solubility [9]: 1.2 µM
stability in aqueous solutions [10]: stable
AUC(0-inf) [11, 14]: 35.5 µM·h
Tmax [11, 14]: 30 min
half-life ([11]; male, CD1, mouse, brain, ip, 30 mg/kg, T1/2 (Brain), mouse, 30 mpk IP): ~60 min
AUC(0-inf) [11, 15]: 13 µM·h
Cmax [11, 15]: 13.8 µM
Tmax [11, 15]: 15 min
half-life ([11]; male, CD1, mouse, plasma, ip, 30 mg/kg, T1/2 (Plasma), mouse, 30 mpk IP): ~60 min
Cmax (Brain) ([11]; mouse, 30 mpk IP, brain): 28.8 µM
microsomal stability without NADPH [12]: no degradation

Structure (SMILES): CC(C)Nc1oc(-c2cccc3ccccc23)nc1C#N [Compound 26, 5-(Isopropylamino)-2-(naphthalen-1-yl)oxazole-4-carbonitrile]
12/15-LOX inhibition in words [2]: significantly reduced the potency

Structure (SMILES): CNc1oc(-c2ccc3cc[nH]c3c2)nc1C#N [Compound 13, 2-(1H-indol-6-yl)-5-(methylamino)oxazole-4-carbonitrile]
IC50 [2]: > 40 µM

More lines, main results first:

IC50 [3]: > 100 µM
Structure (SMILES): CNc1oc(-c2cccc(Cl)c2Cl)nc1C#N [Compound 7, 2-(2,3-Dichlorophenyl)-5-(methylamino)oxazole-4-carbonitrile]
protection against glutamate-induced cell death in HT22 cells ([1]; concentration of 10 μM): some protection

IC50 [2, 13]: > 40 µM
Structure (SMILES): CNc1oc(-c2cccc3nccnc23)nc1C#N [Compound 6, 5-(Methylamino)-2-(quinoxalin-5-yl)oxazole-4-carbonitrile]

12/15-LOX inhibition in words [2]: did not inhibit human 12/15-LOX
Structure (SMILES): N#Cc1nc(-c2cccc3ccccc23)oc1NC1CNC1 [Compound 31, 5-(Azetidin-3-ylamino)-2-(naphthalen-1-yl)oxazole-4-carbonitrile]
protection against oxidative glutamate toxicity in HT22 cells [1]: protected HT22 cells against oxidative stress

IC50 [2, 13]: > 30 µM
Structure (SMILES): CNc1oc(-c2cccc3cnccc23)nc1C#N [Compound 3, 2-(Isoquinolin-5-yl)-5-(methylamino)oxazole-4-carbonitrile]

From patent publication US10287279B2, “Inhibitors of human 12/15-lipoxygenase” (THE GENERAL HOSPITAL CORPORATION, priority 2013, dated 2019)
